pIC50: −log10 of the molar value. Converted amounts (≈) assume the structure as drawn. Like-named read-outs stand apart in the source and are kept apart here.

What is called pIC50 is the negative decadic logarithm of the IC50, by convention in mol/L. What is called Hill slope is a measure of the steepness of the concentration-response curve. For orientation: Km means the concentration of substrate that gives half-maximal velocity.

For experiment [1], the target named is T1, S. aureus SgtB (Staphylococcus aureus, UniProt Q99T05). The conditions noted are these: read-out: IC50, in vitro inhibition of S. aureus SgtB; 50 nM SgtB, 14C-lipid II, 25 min at room temperature, two independent experiments.
Description: In Vitro Inhibition of Polymerization of Lipid II by PGTs
(i) In Vitro Inhibition of S. aureus SgtB:
Then ^14C-labelled lipid II (1 μL, 40 μM, ^14C/^12C 1/3) was added and the polymerization reaction was allowed to proceed for 25 min at room temperature. The reaction was quenched with 10 μL of a solution of moenomycin (1 μM) in 10% triton-X reduced and the remaining lipid II was separated from peptidoglycan (PG) using paper strip chromatography (isobutyric acid/1M NH4OH 5/3). Using a scintillation counter the ratio of radioactivity in PG to total radioactivity was determined and plotted vs. inhibitor concentration. IC50 values were determined using the curve fitting program GraphPad Prism 5.0 (GraphPad Software, Inc.; La Jolla, Calif., USA).
For experiment [2], the system named is S. aureus RN4220. Briefly: Growth (CFU) of S. aureus RN4220 in the presence of compound. In kind it is cell-based. Conditions: S. aureus RN4220, 1-6 h.
The subject of experiment [3] is S. aureus RN4220. The conditions noted are these: S. aureus RN4220 grown with 65 ug/mL for 22 h, repeated. As for the experimental part:
A liquid culture of wild-type S. aureus RN4220 was grown up in the presence of 1882L04 (65 ug/mL) for 22 h. This culture was normalized to OD600=0.6, diluted 100×, and grown up in the presence of 1882L04 (65 ug/mL) and DMSO. The cultures obtained after 22 h were treated as mentioned before and grown up again.

The test system of a further experiment is MSSA NE1. As to the kind of experiment: MIC test in TSB medium with MTT staining, MSSA NE1. The experiment is classed as cell-based, Staphylococcus aureus. The method, then: MIC Test (Methicillin Susceptible Staphylococcus aureus (MSSA Newman) and MSSA NE1)
Overnight cultures of MSSA Newman and MSSA NE1 were grown up in TSB medium at 37° C. The cultures obtained were normalized with TSB to O600=0.6 and diluted 100-fold. A sterile, clear 96 well plate was charged with 1.5 μL of a dilution series compound 1882L04 in DMSO (100×, in duplicate), and the diluted bacterial culture was added (150 μL). Moenomycin at a final concentration of 2.3 μM was used as positive control.

Experiment [4] has as its target T1, S. aureus SgtB. Briefly: Dose-dependent displacement of probe CMG121 from S. aureus SgtB by fluorescence polarization. The experiment is classed as binding. Further details: made in house. The method, then: I. Dose-Dependent Displacement of CMG121 from S. aureus SgtB by Fluorescence Polarization
A black 384 well plate (Corning NBS Low Volume No. 3820) was filled (10 μL per well) with an equilibrated solution containing 10 mM TRIS (pH=8.0), 100 mM NaCl, 75 nM CMG121, and 1.0-1.5 μM S. aureus SgtB (depending on protein batch). Due to presence of 8 mM CHAPS detergent in the buffer of the S. aureus SgtB stock, the final assay solution contains 100-160 μM CHAPS. Using an HP D300 Digital Dispenser, for each compound a 1/1 dilution series (12 wells) of the primary hit compound in DMSO (normalized to 1 μL with DMSO) was prepared and added to the aforementioned assay solution. The plate was incubated at 4° C. for 30 min and read with a Perkin Elmer EnVision microplate reader (FP-read out, excitation: 480 nm; emission: 535 nm).
FIGS. 10A-E show values of reduction of fluorescence polarization for exemplified compounds. […] In the primary assay, FP was read after 30 min at 4° C., compound concentration was ca. 100 μM, and 90% reduction in FP was threshold for scoring hits (Gampe et al., J. Am. Chem. Soc. 2013, 135 (10), 3776-3779; U.S. Provisional Patent Application, U.S. Ser. No. 61/621,229, filed on Apr. 6, 2012; International Application No. PCT/US2013/030800 filed on Mar. 13, 2013).
The values were determined in two independent experiments. IC50=10 μM; Hill slope: −0.92.
(Fluorescence polarisation rises when a labelled molecule tumbles more slowly, as on binding a larger partner.)

The next experiment relates to S. aureus NEI. As to the kind of experiment: TEM imaging of S. aureus NE1 treated with compound. The experiment is classed as cell-based. The text has this:
FIGS. 7A and 7B show TEM imaging of S. aureus NEI treated with compound 1882L04.

A further experiment has as its system E. faecalis PBP2a. As to the kind of experiment: In vitro inhibition of polymerization of 14C-lipid II by E. faecalis PBP2a. The conditions noted are these: 50 nM PBP2a, 25 min at room temperature. The experiment is classed as biochemical.
In another experiment the test system is MSSA Newman. Briefly: MIC test in TSB medium with MTT staining, MSSA Newman. The experiment is classed as cell-based, Staphylococcus aureus. Conditions: TSB, 37° C., MTT staining after 22 h. The method, then:
MIC Test (Methicillin Susceptible Staphylococcus aureus (MSSA Newman))
Overnight cultures of MSSA Newman were grown up in TSB medium at 37° C. The cultures obtained were normalized with TSB to OD600=0.6 and diluted 100-fold. 1.5 μL of a dilution series of Example Compounds in DMSO (100×, in duplicate), and the diluted bacterial culture (150 μL) was added to wells of a sterile, clear 96 well plate and incubated at 37° C.

Experiment [5] concerns the target T1, S. aureus SgtB. As to the kind of experiment: Michaelis-Menten kinetics of lipid II polymerization by S. aureus SgtB in the presence of 1882L04. In kind it is biochemical. Further details: made in house. As for the experimental part:
(ii) Determination of KM and vmax for Polymerization of Lipid II by S. aureus SgtB in the Presence of 1882L04
The polymerization reaction was initiated by addition of radioactively labeled lipid II (1 μL, 100 μM, ^14C/^12C=1/3; for a final concentration of 10 μM=KM). […] This ratio was multiplied with the concentration of lipid II used to obtain the amount of lipid II in PG in μM. This value was devided by 1200 s to obtain the reaction rate v in μM/s, which was plotted vs. concentration of lipid II.

T1 sequence (Q99T05 68-269): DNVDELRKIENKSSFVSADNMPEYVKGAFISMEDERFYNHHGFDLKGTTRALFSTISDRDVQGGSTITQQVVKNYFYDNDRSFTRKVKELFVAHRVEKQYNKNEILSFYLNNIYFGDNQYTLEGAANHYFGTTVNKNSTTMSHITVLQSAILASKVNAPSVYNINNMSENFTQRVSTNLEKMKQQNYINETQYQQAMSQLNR
Description for E. faecalis PBP2a: (ii) In Vitro Inhibition of E. faecalis PBP2a
Solutions of the E. faecalis PBP2a (50 nM) in 50 mM HEPES (pH=7.5), 10 mM CaCl2, and 1000 U/min PenG (8 μL) were incubated with DMSO solutions containing the inhibitor of interest in different concentrations (1 μL) for 20 min. Then ^14C-labelled lipid II (1 μL, 40 μM, ^14C/^12C 1/3) was added and the polymerization reaction was allowed to proceed for 25 min at room temperature.

On to `Cc1cccc(OCCCSc2nc(-c3ccc(C(C)(C)C)cc3)nc3cc(=O)[nH]n23)c1C` [1882L04], for which the pIC50 on S. aureus SgtB [1] was 4.01; on S. aureus SgtB [4] (displacement of 75 nM CMG121 from S. aureus SgtB, 30 min at 4° C., read-out: IC50 from FP Assay), 5.00; in the experiment on E. faecalis PBP2a it was 3.47. Further, the “Type of antibacterial activity (number of CFUs)” value in the experiment on S. aureus RN4220 [2] is “bacteriostatic activity”. Besides, the Development of resistance result in the experiment on S. aureus RN4220 [3] is on record as “became resistant”. Besides, the “Sensitization of MSSA NE1 to compound (MIC data)” value with MSSA NE1 is given as “sensitized”. Further, the “MIC MSSA NE1” value in the experiment on MSSA NE1 (TSB, 37° C., MTT staining after 22 h) amounted to 8 µg/mL (≈ 17.3 µM). Also, on S. aureus SgtB [4] (displacement of CMG121 from S. aureus SgtB, two independent experiments), the Hill slope is listed as −0.92. The “Cell morphology by TEM” value with S. aureus NEI is on record as “growth defects”. For the same compound, the “MIC MSSA Newman” value against MSSA Newman amounted to 125 µg/mL (≈ 270 µM). The Km at S. aureus SgtB [5] (c(1882L04)=50 μM) is 18.2 µM; at S. aureus SgtB [5] (c(1882L04)=100 μM), 20.9 µM. Also, the figures for the “vmax for polymerization of lipid II by SgtB” value on S. aureus SgtB [5] (c(1882L04)=50 μM) and at S. aureus SgtB [5] (c(1882L04)=100 μM) were 0.015 µM/s and 0.012 µM/s, respectively.

These data come from patent US20180162862A1 (President and Fellows of Harvard College, priority 2015, published 2018).
